Experimental data published in ChEMBL document CHEMBL1201862, “PubChem BioAssay data set” (2004).
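Test compounds were applied to cells in 96-well plates for 48 hours at 5 doses. Abbreviation: GI50, concentration required for 50% inhibition of growth.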 Active and inactive are the calls of the source. Rule as the data show it: active = GI50 up to about 1.1 µM and inactive = higher.

Key:
Experiment in all cases: inhibition of tumour cell growth, NCI panel, 48 h
[1] = system: EKVX
[2] = system: HCT-116
[3] = system: HCT-15
[4] = system: HOP-62
[5] = system: MCF7
[6] = system: NCI-H460
[7] = system: NCI/ADR-RES
[8] = system: OVCAR-3
[9] = system: OVCAR-5
[10] = system: SF-268
[11] = system: SK-MEL-2
[12] = system: SK-MEL-5
[13] = system: SK-OV-3
[14] = system: SNB-19
[15] = system: SNB-75
[16] = system: TK-10
[17] = system: U-251
[18] = system: UACC-257
[19] = system: K562
[20] = system: MOLT-4

SMILES	GI50 [1]	GI50 [2]	GI50 [3]	GI50 [4]	GI50 [5]	GI50 [6]	GI50 [7]	GI50 [8]	GI50 [9]	GI50 [10]	GI50 [11]	GI50 [12]	GI50 [13]	GI50 [14]	GI50 [15]	GI50 [16]	GI50 [17]	GI50 [18]	GI50 [19]	GI50 [20]
CC(C)(C)NCc1cc(C(C)(C)C)cc(-c2ccc(Cl)cc2)c1O	12.7 µM (inactive)	13.2 µM (inactive)	11 µM	6.14 µM (inactive)	14.6 µM (inactive)	12.5 µM (inactive)	14.6 µM (inactive)	15.6 µM (inactive)	13.8 µM (inactive)	12.6 µM (inactive)	18.4 µM (inactive)	16.2 µM (inactive)	17.1 µM (inactive)	15.7 µM (inactive)	10.7 µM (inactive)	12 µM (inactive)	11.9 µM (inactive)	28.2 µM (inactive)	–	–
OCC1(CNc2cc(Cl)ncn2)CCC1	> 100 µM (inactive)	> 100 µM (inactive)	> 100 µM	> 100 µM (inactive)	> 100 µM (inactive)	> 100 µM (inactive)	> 100 µM (inactive)	> 100 µM (inactive)	> 100 µM (inactive)	> 100 µM (inactive)	> 100 µM (inactive)	> 100 µM (inactive)	–	–	> 100 µM (inactive)	> 100 µM (inactive)	> 100 µM (inactive)	> 100 µM (inactive)	> 100 µM (inactive)	> 100 µM (inactive)
O=C(NCc1ccccc1)c1cnc(Cl)cn1	> 100 µM (inactive)	79.8 µM (inactive)	23.1 µM	–	> 100 µM (inactive)	> 100 µM (inactive)	16.6 µM (inactive)	31.2 µM (inactive)	–	> 100 µM (inactive)	48.1 µM (inactive)	54 µM (inactive)	> 100 µM (inactive)	63.8 µM (inactive)	29.7 µM (inactive)	> 100 µM (inactive)	48.2 µM (inactive)	53 µM (inactive)	–	27.1 µM (inactive)
Cc1n[n+]([O-])c(C)cc1[N+](=O)[O-]	23.5 µM (inactive)	16.1 µM (inactive)	15.9 µM	19.5 µM (inactive)	17.3 µM (inactive)	14 µM (inactive)	20.6 µM (inactive)	14.5 µM (inactive)	19.5 µM (inactive)	46 µM (inactive)	20.1 µM (inactive)	16.3 µM (inactive)	93.8 µM (inactive)	39.4 µM (inactive)	23.8 µM (inactive)	8.67 µM (inactive)	22.4 µM (inactive)	15.6 µM (inactive)	–	–
O=C(Nc1cc2cc([N+](=O)[O-])ccc2oc1=O)c1cccs1	61.7 µM (inactive)	25.4 µM (inactive)	–	28.8 µM (inactive)	19.6 µM (inactive)	51.2 µM (inactive)	62.2 µM (inactive)	97.5 µM (inactive)	> 100 µM (inactive)	33.2 µM (inactive)	72.9 µM (inactive)	16 µM (inactive)	–	> 100 µM (inactive)	2.78 µM (inactive)	> 100 µM (inactive)	19.8 µM (inactive)	75.2 µM (inactive)	25.9 µM (inactive)	25.3 µM (inactive)
COC(=O)c1cc(/C=C\c2cc(OC)ccc2OC)ccc1OC	26.1 µM (inactive)	32.4 µM (inactive)	33.2 µM	25.6 µM (inactive)	25.6 µM (inactive)	51.2 µM (inactive)	37.3 µM (inactive)	24.4 µM (inactive)	39.4 µM (inactive)	32.7 µM (inactive)	24.9 µM (inactive)	17.7 µM (inactive)	37.3 µM (inactive)	34 µM (inactive)	–	50.8 µM (inactive)	32.3 µM (inactive)	30.5 µM (inactive)	6.5 µM (inactive)	6.75 µM (inactive)
Cc1ccc(S(=O)(=O)N2C3C=CC(C3)[C@@H]2C(Cl)(Cl)Cl)cc1 (some centres not stated)	5.22 µM (inactive)	10.8 µM (inactive)	19.1 µM	10.4 µM (inactive)	26.7 µM (inactive)	6.75 µM (inactive)	9.51 µM (inactive)	6.64 µM (inactive)	0.0391 µM (active)	13.2 µM (inactive)	7.36 µM (inactive)	19.3 µM (inactive)	–	17.9 µM (inactive)	18.2 µM (inactive)	18.7 µM (inactive)	15 µM (inactive)	20.1 µM (inactive)	–	19.3 µM (inactive)
COc1cc2c(c(OC)c1OC)-c1ccc(SC)c(=O)cc1[C@@H](OC(C)=O)CC2	–	< 0.01 µM (active)	< 0.01 µM	< 0.01 µM (active)	< 0.01 µM (active)	< 0.01 µM (active)	< 0.01 µM (active)	< 0.01 µM (active)	–	< 0.01 µM (active)	< 0.01 µM (active)	< 0.01 µM (active)	–	< 0.01 µM (active)	< 0.0152 µM (active)	21.8 µM (inactive)	< 0.01 µM (active)	< 0.01 µM (active)	< 0.01 µM (active)	< 0.01 µM (active)
Cc1ccc(SCC(OCn2cnc3c(N)ncnc32)[C@H](C)F)cc1 (some centres not stated)	–	> 100 µM (inactive)	> 100 µM	> 100 µM (inactive)	> 100 µM (inactive)	> 100 µM (inactive)	73.1 µM (inactive)	> 100 µM (inactive)	> 100 µM (inactive)	> 100 µM (inactive)	> 100 µM (inactive)	41.4 µM (inactive)	> 100 µM (inactive)	> 100 µM (inactive)	> 100 µM (inactive)	> 100 µM (inactive)	> 100 µM (inactive)	> 100 µM (inactive)	–	> 100 µM (inactive)
COC(=O)C1(C(=O)OC)CC2=C(S(=O)(=O)c3ccccc3)C[C@H](C#N)[C@H]2C1	> 100 µM (inactive)	> 100 µM (inactive)	40.6 µM	> 100 µM (inactive)	24 µM (inactive)	–	> 100 µM (inactive)	–	> 100 µM (inactive)	> 100 µM (inactive)	> 100 µM (inactive)	> 100 µM (inactive)	> 100 µM (inactive)	64.6 µM (inactive)	> 100 µM (inactive)	> 100 µM (inactive)	> 100 µM (inactive)	> 100 µM (inactive)	–	> 100 µM (inactive)
CN(C)c1cc2ccccc2oc1=O	> 100 µM (inactive)	> 100 µM (inactive)	> 100 µM	> 100 µM (inactive)	> 100 µM (inactive)	> 100 µM (inactive)	> 100 µM (inactive)	> 100 µM (inactive)	> 100 µM (inactive)	> 100 µM (inactive)	> 100 µM (inactive)	> 100 µM (inactive)	–	> 100 µM (inactive)	> 100 µM (inactive)	> 100 µM (inactive)	> 100 µM (inactive)	> 100 µM (inactive)	> 100 µM (inactive)	> 100 µM (inactive)
Cc1nc(O)nc2nc3ccc(Cl)cc3c(N(CCO)CCO)c12	0.762 µM (active)	> 100 µM (inactive)	94.4 µM	> 100 µM (inactive)	> 100 µM (inactive)	48.2 µM (inactive)	> 100 µM (inactive)	> 100 µM (inactive)	> 100 µM (inactive)	> 100 µM (inactive)	> 100 µM (inactive)	> 100 µM (inactive)	> 100 µM (inactive)	> 100 µM (inactive)	–	> 100 µM (inactive)	> 100 µM (inactive)	> 100 µM (inactive)	85.7 µM (inactive)	> 100 µM (inactive)
NC(=O)N/N=C/c1ccccc1O	45 µM (inactive)	> 100 µM (inactive)	> 100 µM	> 100 µM (inactive)	> 100 µM (inactive)	> 100 µM (inactive)	> 100 µM (inactive)	–	–	> 100 µM (inactive)	> 100 µM (inactive)	> 100 µM (inactive)	> 100 µM (inactive)	> 100 µM (inactive)	> 100 µM (inactive)	> 100 µM (inactive)	> 100 µM (inactive)	> 100 µM (inactive)	> 100 µM (inactive)	> 100 µM (inactive)
O=C(c1ccccc1)C1C(c2ccccc2[N+](=O)[O-])N1C1CCCCC1 (configuration not stated)	13.7 µM (inactive)	1.8 µM (inactive)	3.52 µM	15.1 µM (inactive)	3.65 µM (inactive)	9.2 µM (inactive)	6.05 µM (inactive)	2.5 µM (inactive)	17 µM (inactive)	9.2 µM (inactive)	5.21 µM (inactive)	11 µM (inactive)	22.1 µM (inactive)	16.3 µM (inactive)	–	2.74 µM (inactive)	6.01 µM (inactive)	3.21 µM (inactive)	2.79 µM (inactive)	2.43 µM (inactive)
CC[C@@]1(O)C(=O)OCc2c1cc1n(c2=O)Cc2cc3cc(O)ccc3nc2-1 [HYDROXYCAMPTOTHECIN]	–	–	0.295 µM	< 0.0109 µM (active)	< 0.0075 µM (active)	–	0.0232 µM (active)	–	0.047 µM (active)	–	0.473 µM (active)	–	0.0227 µM (active)	–	0.014 µM (active)	2.69 µM (inactive)	< 0.0075 µM (active)	–	–	0.00944 µM (active)
O=CC1C(=O)Nc2nc3ccccc3n2C1c1ccccc1 (configuration not stated)	22.5 µM (inactive)	12.4 µM (inactive)	15.1 µM	5.06 µM (inactive)	10.6 µM (inactive)	29.4 µM (inactive)	54.7 µM (inactive)	7.89 µM (inactive)	25.2 µM (inactive)	12.1 µM (inactive)	17.3 µM (inactive)	14.6 µM (inactive)	–	–	5.75 µM (inactive)	28.6 µM (inactive)	14.4 µM (inactive)	15 µM (inactive)	4.37 µM (inactive)	0.258 µM (active)
